Values joined by “and” are separate entries in the source; they are usually repeats but may differ in a detail not shown here. Equal entries are not always repeated.
Key:
[1] = tested on: Gram-positive bacteria, yeasts, and moulds; conditions: cited from earlier work
[2] = tested on: aerobic, Gram-negative bacteria; conditions: cited from earlier work
[3] = tested on: bacteria; conditions: cited from earlier work
[4] = tested on: moulds; conditions: pH of 5.5; cited from earlier work
[5] = tested on: yeasts and moulds as well as catalase-positive bacteria; conditions: cited from earlier work
[6] = Preserving effect in toothpaste; conditions: 2000 ppm; compared with sodium benzoate
[7] = Irritation effect of skin cream on the skin; conditions: added to skin cream, 250 or 2000 ppm
[8] = Preserving effect in shampoo; conditions: 2000 ppm; compared with a normally used preservative
[9] = Irritation effect of shampoo on the scalp; conditions: added to shampoo, 2000 ppm
[10] = Preserving effect in skin cream (oil-in-water); conditions: 250 or 2000 ppm; compared with methyl paraben
[11] = tests disclosed in the literature (Baute et al. 1993); cited from earlier work
[12] = tested on: B. anthracis 3.046; type: cell-based, Bacillus anthracis; conditions: 24 h at 30° C.
[13] = tested on: Bacillus anthracis; type: cell-based
[14] = tested on: caries; test: Caries inhibition by toothpaste with APP; conditions: added to toothpaste, 2000 ppm
[15] = Stability of APP in water; conditions: water at 24° C.
[16] = cited from earlier work
[17] = tested on: B. anthracis 204; type: cell-based, Bacillus anthracis; conditions: 24 h at 30° C.
[18] = tested on: B. anthracis; type: cell-based, Bacillus anthracis; conditions: 24 h at 30° C.

O=S=O [Sulphur Dioxide]
Effective concentration [1]: 800-2000 ppm
Effective concentration for inhibition [2]: 250-500 ppm

Propionic Acid and Propionate
Concentration necessary for inhibition of bacteria [3]: > 16000 ppm
Concentration inhibiting moulds [4]: 125 to 12500 ppm

C/C=C/C=C/C(=O)O [Sorbic Acid]
Effective concentration [5]: 500-3000 ppm

O=C1CO[C@H](CO)[C@@H](O)[C@@H]1O [AF, 1,5-anhydro-D-fructose]
Preserving effect in toothpaste [6]: as good preservatives as the commonly used preservative
Irritation effect on the skin [7]: no irritation effect
Preserving effect in shampoo [8]: as good preservatives as the commonly used preservative
Irritation effect on the scalp [9]: no irritation effect
Preserving effect in skin cream [10]: as good preservatives as the commonly used preservative

O=C1C[C@@H](CO)OC=C1O [APP, 1,5-Anhydro-4-deoxy-D-glycero-hex-1-en-3-ulose]
Preserving effect in toothpaste [6]: as good preservatives as the commonly used preservative
Irritation effect on the skin [7]: no irritation effect
Function as an antibiotic [11]: did not function satisfactorily as an antibiotic
APP level causing significant inhibition [12]: 2000 ppm
APP level causing total inhibition [12]: 3000 ppm
Sensitivity in well diffusion test (zones of inhibition) [13]: sensitive
Preserving effect in shampoo [8]: as good preservatives as the commonly used preservative
Inhibition of caries [14]: inhibited caries
Stability in water ([15]; 2 weeks): stable
Stability in water ([15]; after 2 months): completely disappears
Stability ([16]; pH 1.5-5.5): stable
half-life ([16]; pH 11-12.5): 5 h
Irritation effect on the scalp [9]: no irritation effect
APP level causing significant inhibition [17]: 4000 ppm and 2000 ppm
APP level causing total inhibition [17]: >4000 ppm and 4000 ppm
Preserving effect in skin cream [10]: as good preservatives as the commonly used preservative
APP level causing significant inhibition [18]: 2000 ppm
APP level causing total inhibition [18]: 4000 ppm and >4000 ppm
